Source: patent US20230167450A1, “BIFUNCTIONAL MOLECULES AND METHODS OF USING THEREOF” (Flagship Pioneering, Inc., priority 2020, published 2023)

B1: ASO1: Non-targeting (scramble) control ASO, …, 2′-MOE phosphorothioate; tested conjugated at 5′ end with Ibrutinib-MPEA (nucleic acid)
chain: CCUUGAAAUCCAUGACGCAGGGAGAAUUGCGUCAUUUAAAGCCUAGUUAACGCAUUUACUAAACGCAGACGAAAAUGGAAAGAUUAAUUGGGAGUGGUAGGAUGAAACAAUUUGGAGAAGAUAGAAGUUUGAAGUGGAAAACUGGAAGACAGAAGUACGGGAAGGCGAA
modifications: Cy5-labeled IVT RNA

System: mRNA encoding Renilla Luciferase protein
Experiment: Renilla luciferase activity (protein expression) in HEK293T cells co-transfected with pRL-TK target plasmid and BTK-fused effector plasmid
Format: cell-based, human
Conditions: ASO conjugated at the 5′ end with Ibrutinib-MPEA; effector fused to BTK
Excerpt: The Ibrutinib-conjugated ASOs described in Example 4a (shown in Table 5 below) were co-transfected into human cells along with the plasmid expressing the target Renilla luciferase described in example 4b, as well as the plasmid expressing BTK-YTHDF1 effector protein described example 4c.
A 96-well cell culture plate with 70% confluent HEK293T cells was transfected with the 50 nanograms of the target luciferase plasmid and 100 nanograms of the plasmid expressing the BTK-YTHDF1 effector, using Lipofectamine 2000 (Thermo Fisher Scientific) according to the manufacturer's instruction. After 24 hours, targeting (test) and non-targeting (control) ASOi were transfected separately into the cells at the final concentration of 100 nM using Lipofectamine RNaiMax (Thermo Fisher Scientific) according to the manufacturer's instruction. For each condition, cells were allowed to recover and are subsequently analyzed 48 hours after the transfection of ASOis.
Pierce Renilla Luciferase Glow Assay Kit (Thermo Fisher Scientific) was used for measuring the luciferase activity corresponding to protein expression in each condition, according to manufacturer's instruction. The luminescence was measured and quantified by a GloMax plate reader and its integrated software (Promega Corp.), according to manufacturer's instruction (FIG. 4). […]

Row | Molecule | Effector(s) increasing translation
1 | ASO3: Rluc RNA-targeting ASO, TTCTGCAGCTTAAGTTCGA, 2′-MOE phosphorothioate; tested conjugated at 5′ end with Ibrutinib-MPEA (*/i2MOErT/*/i2MOErT/*/i2MOErC/*/i2MOErT/*/i2MOErG/*/i2MOErC/*/i2MOErA/*/i2MOErG/*/i2MOErC/*/i2MOErT/*/i2MOErT/*/i2MOErA/*/i2MOErA/*/i2MOErG/*/i2MOErT/*/i2MOErT/*/i2MOErC/*/i2MOErG/*/32MOErA/; as printed in the source, key not given here) | YTHDF1, EIF4E
2 | B1 | YTHDF1, EIF4E
